The source of these data is patent US20130347134A1, “TRANSGENIC VON WILLEBRAND FACTOR ANIMALS AND USES THEREOF” (priority 2012, published 2013).

In one assay the test system is thrombus. To be noted: maximal effective dose 50 mg/kg the day before and 2 hours prior; cited from earlier work.
The target in assay [1] is ADP receptor on murine platelets (Mus musculus, UniProt Q9CPV9). The conditions noted are these: FIG. 46A. The protocol:
(§1) Tail bleeding assay. […] For studies involving PLAVIX, animals received a 50 mg/kg oral dose of the drug the day before and 2 hours prior to the administration of human platelets.

Assay [2] deals with human platelets. Description: Ex vivo platelet adhesion, parallel-plate flow chamber, human whole blood over surface-immobilized VWF or VWF-A1, 1600 s^-1. To be noted: for translocation velocities of human platelets: on plasma VWF, mean±s.e.m, n=4. Format: cell-based. The protocol:
Ex vivo platelet adhesion studies. Experiments were performed in a parallel-plate flow chamber as previously described (Offermanns, S., et al., 2006). For studies involving plasma VWF, a polyclonal anti-VWF antibody (Dako) was absorbed overnight (4° C.) to a six well tissue culture plate. Subsequently, the plate was washed and non-specific interactions blocked by the addition of TBS containing 3% BSA, pH 7.4 (1 hour, 37° C.). Human or murine plasma obtained from heparinized whole blood was added and the plates placed at 37° C. for an additional 2 hours. Generation, purification, and surface-immobilization of recombinant VWF-A1 proteins was performed as previously described (Doggett, T. A. et al., 2002). Both human and murine VWF-A1 constructs consist of amino acid residues 1238 to 1471, with a single intra-disulfide bond formed between residues 1272 and 1458 and were generated in bacteria. Citrated whole blood (150 μl) collected via cardiac puncture from anesthetized homozygous VWF^1326R>H or WT mice or from venopuncture from human volunteers was perfused over the immobilized substrates at a wall shear rate of 1600 s^−1 for 4 minutes, followed by washing with Tyrode's buffer under the identical flow conditions. The number of platelets attached per unit area (0.07 mm^2) and translocation velocities were determined by off-line analysis (Image-Pro Plus, Media Cybernetics). For GPIb α inhibition studies, the function-blocking mAb 6D1 (20 μg/ml) or mAb SZ2 (20 μg/ml; Beckman Coulter, Brea, Calif.) was added to anticoagulated human blood for 30 minutes prior to use. Experiments were performed in triplicate on two separate days. An ELISA was used to ensure equivalent coating concentration of plasma and recombinant proteins (Denis, C. et al., 1998).

In another assay the target is T1, αIIb β3 (Homo sapiens, UniProt P05106+P08514).
T1 construct: endogenous in cells; host or cells: platelets of treated patients
The conditions noted are these: intravenous bolus 0.25 mg/kg, then 0.125 μg/kg/min; cited from earlier work.

For assay [3], the system named is human platelets. Description: Tail bleeding assay, human platelet-induced hemostasis in homozygous VWF^1326R>H mice. Format: in vivo, mouse. To be noted: for human platelet-induced hemostatic clot formation: drug given to homozygous VWF^1326R>H mice receiving human platelets. The protocol: as §1
This assay provides an indirect measure of the ability of platelets and VWF to support hemostasis by interacting with the injured vessel wall. It also indirectly determines the function of multiple receptors and ligands on platelets that are required to form a hemostatic plug. […] It is performed by immersing the severed tip (10 mm) of the animal's tail in isotonic saline at 37° C. and monitoring the length of time required for bleeding to cease. Homozygous mutant mice will be infused with an equal volume of either saline or purified human platelets. Platelet specific antibodies or drugs will be administered as described above and their ability to prolong bleeding time evaluated.

Another assay deals with murine αIIb β3 (Mus musculus, UniProt O54890+Q9QUM0). The conditions noted are these: cited from earlier work.
The test system of assay [4] is human platelets. Description: Parallel plate flow system, human platelets over immobilized plasma VWF of VWF HA1 mice. Format: cell-based.
A further assay deals with mouse platelets. Briefly: Parallel plate flow system, WT mouse blood over immobilized plasma VWF of VWF HA1 mice. Format: cell-based. The source says:
WT mouse blood was then infused over the immobilized substrate.

Assay [5] deals with human platelets. Briefly: Optical aggregometry, human platelets resuspended in platelet poor plasma of VWF^R1326H or VWF^HA1 mice. Format: cell-based. The protocol:
Although the R1326H mutation in murine VWF can support human platelet mediated hemostasis and thrombosis, there still exists a major difference between the human and mouse A1 domains. Specifically, only the human form can be activated to bind to GPIb alpha on human platelets. Ristocetin is an antibiotic that was taken off the market due to its ability to cause von Willebrand factor to bind the platelet receptor GPIb alpha, so when ristocetin is added to normal blood, it causes platelet clumping. […] Thus, murine VWF bearing the majority of the human A1 domain functions in manner more closely to that in humans, making it a better biological platform for studying human platelet function and the effects of antiplatelet agents for use in human beings.

For assay [6], the system named is murine platelet rich plasma. Description: Ristocetin-induced platelet aggregation assay (RIPA), murine platelet rich plasma. Format: cell-based, mouse. The protocol: In Ristocetin-induced platelet aggregation assays (RIPA), platelet GPIb a binding to wild type human VWF or mouse VWF was analyzed in the absence or presence of ristocetin as described previously (Inbal, et al., 1993). In this method, platelet rich plasma (PRP) is placed in a clear cuvette containing a stir bar and inserted into the aggregometer. Platelet aggregation is induced by the addition of ristocetin. […] In fact, only at concentrations of 2.5 mg/ml was there any evidence of murine platelet aggregation observed (about 30%, FIG. 10C).

Entries after “also recorded” stand apart in the source; their conditions may differ.

ADP receptor on murine platelets, sequence (Q9CPV9 whole entry): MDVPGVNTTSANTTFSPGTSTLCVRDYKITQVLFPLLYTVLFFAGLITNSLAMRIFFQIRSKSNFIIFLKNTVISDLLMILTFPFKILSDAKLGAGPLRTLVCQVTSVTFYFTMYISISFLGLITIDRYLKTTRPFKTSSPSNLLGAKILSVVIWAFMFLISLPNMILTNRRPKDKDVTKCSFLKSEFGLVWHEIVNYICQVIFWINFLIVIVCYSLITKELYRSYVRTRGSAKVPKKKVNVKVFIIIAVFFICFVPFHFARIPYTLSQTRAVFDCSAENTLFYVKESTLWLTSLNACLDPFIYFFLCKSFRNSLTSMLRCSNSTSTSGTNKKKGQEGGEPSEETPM
murine αIIb β3, sequence (Q9QUM0 32-1033): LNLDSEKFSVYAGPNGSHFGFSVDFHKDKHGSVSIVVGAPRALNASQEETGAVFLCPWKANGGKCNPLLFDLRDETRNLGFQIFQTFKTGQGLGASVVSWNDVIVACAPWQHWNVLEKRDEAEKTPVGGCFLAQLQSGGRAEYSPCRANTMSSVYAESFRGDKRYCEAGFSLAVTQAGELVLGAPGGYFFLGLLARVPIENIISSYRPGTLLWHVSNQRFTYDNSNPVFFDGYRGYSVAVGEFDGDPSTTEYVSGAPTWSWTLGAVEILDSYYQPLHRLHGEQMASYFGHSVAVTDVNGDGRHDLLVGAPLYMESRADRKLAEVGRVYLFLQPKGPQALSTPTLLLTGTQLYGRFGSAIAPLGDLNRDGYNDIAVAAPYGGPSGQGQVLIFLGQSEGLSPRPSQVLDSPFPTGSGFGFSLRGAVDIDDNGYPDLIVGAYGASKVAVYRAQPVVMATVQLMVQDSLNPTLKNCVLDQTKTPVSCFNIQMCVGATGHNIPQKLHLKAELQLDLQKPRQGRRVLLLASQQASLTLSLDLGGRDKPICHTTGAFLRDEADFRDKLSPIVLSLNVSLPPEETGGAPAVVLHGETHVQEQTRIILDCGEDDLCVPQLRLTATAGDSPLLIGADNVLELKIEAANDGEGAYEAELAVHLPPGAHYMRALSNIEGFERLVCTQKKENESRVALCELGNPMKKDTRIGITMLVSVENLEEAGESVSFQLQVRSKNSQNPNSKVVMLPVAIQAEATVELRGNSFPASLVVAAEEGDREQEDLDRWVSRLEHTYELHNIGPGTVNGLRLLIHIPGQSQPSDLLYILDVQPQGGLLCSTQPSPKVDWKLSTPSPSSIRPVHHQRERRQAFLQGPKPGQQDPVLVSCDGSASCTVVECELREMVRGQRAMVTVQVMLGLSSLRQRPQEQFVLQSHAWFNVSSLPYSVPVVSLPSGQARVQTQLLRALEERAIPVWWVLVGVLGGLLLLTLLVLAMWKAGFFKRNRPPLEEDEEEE
murine αIIb β3, sequence (O54890 26-787): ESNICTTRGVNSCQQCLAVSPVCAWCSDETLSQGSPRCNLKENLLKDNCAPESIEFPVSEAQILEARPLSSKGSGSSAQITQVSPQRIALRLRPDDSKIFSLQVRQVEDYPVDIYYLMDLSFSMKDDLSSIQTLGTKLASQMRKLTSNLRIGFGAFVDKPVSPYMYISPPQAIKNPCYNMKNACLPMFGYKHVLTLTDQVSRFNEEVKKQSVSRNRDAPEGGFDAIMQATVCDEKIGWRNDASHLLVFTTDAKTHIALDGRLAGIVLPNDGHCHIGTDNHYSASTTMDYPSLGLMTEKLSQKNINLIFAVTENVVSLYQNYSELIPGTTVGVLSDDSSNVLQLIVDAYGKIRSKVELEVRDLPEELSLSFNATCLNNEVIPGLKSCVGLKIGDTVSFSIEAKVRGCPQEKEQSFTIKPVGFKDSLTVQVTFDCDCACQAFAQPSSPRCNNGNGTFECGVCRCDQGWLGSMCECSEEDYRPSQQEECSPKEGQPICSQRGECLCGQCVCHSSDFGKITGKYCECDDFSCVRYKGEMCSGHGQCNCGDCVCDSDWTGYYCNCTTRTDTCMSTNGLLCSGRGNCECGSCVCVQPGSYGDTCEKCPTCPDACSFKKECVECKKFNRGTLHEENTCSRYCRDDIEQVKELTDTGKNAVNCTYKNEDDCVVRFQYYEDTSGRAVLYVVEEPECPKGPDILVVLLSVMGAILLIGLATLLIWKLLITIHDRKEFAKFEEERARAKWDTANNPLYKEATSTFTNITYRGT

For the compound `COC(=O)[C@H](c1ccccc1Cl)N1CCc2sccc2C1` [clopidogrel], the “thrombus size and formation in mice” value in the assay with thrombus was “reduce thrombus size and delay its formation”. Moreover, the “function of the ADP receptor on murine platelets” value in [1] is given as “can also block the function of the ADP receptor on murine platelets”.

Take “VWF^1326R>H: full-length murine plasma VWF containing the 1326R>H mutation”: the “translocation velocities of human platelets” value in the assay on human platelets [2] came out at 3.5±0.1 μm/sec. The “human platelet accumulation on the surface-immobilized protein” value in the assay with human platelets [2] (shear rate 1600 s^−1) is given as “bound human platelets at levels comparable with its human counterpart”.

abciximab: in the assay with αIIb β3, the “duration of disruption of platelet function” value is 24 to 36 h and the “αIIb β3 occupancy” value is given as greater than 80%. In the assay with human platelets [3], the “human platelet-induced hemostatic clot formation” value was “completely disrupted”. In the assay with human platelets [3] (listed as ReoPro), the “human platelet-induced hemostatic clot formation” value was “prevented the formation of a hemostatic plug”. In addition, the mean bleeding time in the assay with human platelets [3] (given 5 minutes after infusion of human platelets, bolus 0.25 mg/kg then 0.125 μg/kg/min) was 579 s. The “binding or disruption of function of murine αIIb β3” value with murine αIIb β3 is reported as “does not bind or disrupt the function of murine αIIb β3”.

Consider “murine plasma VWF: plasma VWF of wild type mice”, for which the “human platelet deposition as compared with same-species controls” value in the assay on human platelets [2] (human whole blood, shear rate 1600 s^−1) amounted to 10%.

Take “native human plasma VWF: human plasma VWF”: the “translocation velocities of human platelets” value in the assay with human platelets [2] was 3.2±0.1 μm/sec.

Regarding “plasma VWF containing the human A1 domain: mouse VWF containing the majority of the human A1 domain (amino acids 1240P to 1481G)”, the “human platelet interactions with the immobilized protein” value in the assay with human platelets [4] was “could interact at levels observed for human plasma VWF”. The “mouse platelet interactions with the immobilized protein” value in the assay with mouse platelets was “could not support any significant interactions”.

As to ristocetin, the human platelet aggregation entry with human platelets [5] (plasma from VWF^HA1 mice) was “cause human platelet aggregation comparable to its human counterpart”; in the assay with human platelets [5] (plasma from VWF^R1326H animals) it was “such was not the case”. The murine platelet aggregation entry in assay [6] (about 1.0 mg/ml) is reported as “no such effect; also recorded: had no effect”.

Compound thrombin yielded a platelet aggregation in assay [6] (incubation of murine PRP with thrombin) greater than 90%.
